{"source": "patent US10987371B2", "about": "(priority 2017, dated 2021)", "key": {"Ebola": {"tested_on": "Ebola", "settings": "mouse, in vivo; cited from earlier work"}, "ZIKV PLCal_ZV [1]": {"tested_on": "ZIKV PLCal_ZV", "experiment": "microbe, parasite or virus in culture", "type": "cell-based", "settings": "Zika virus, Vero"}, "ZIKV PLCal_ZV [2]": {"tested_on": "ZIKV PLCal_ZV", "type": "cell-based"}, "[3]": {"tested_on": "ZIKV nonstructural protein 1 (NS1)", "type": "cell-based"}, "ZIKV PRVABC59 isolate": {"tested_on": "ZIKV PRVABC59 isolate", "settings": "mouse, in vivo"}, "Vero E6 cells": {"tested_on": "Vero E6 cells", "settings": "African green monkey"}, "[4]": {"settings": "in vivo"}, "[5]": {"settings": "human"}, "in vivo": {"experiment": "in vivo", "settings": "male, C57BL/6, mouse"}}}
{"smiles": "CCC(CC)COC(=O)[C@H](C)N[P@](=O)(OC[C@H]1O[C@@](C#N)(c2ccc3c(N)ncnn23)[C@H](O)[C@@H]1O)Oc1ccccc1", "note": "[GS-5734]", "values": [{"measurement": "protection in mice", "setting": "Ebola", "value": 100, "unit": "%"}]}
{"smiles": "O=c1c(O[C@@H]2O[C@H](CO)[C@@H](O)[C@H](O)[C@H]2O)c(-c2ccc(O)c(O)c2)oc2cc(O)cc(O)c12", "note": "[Q3G, Quercetin-3-β-O-D-glucoside]", "values": [{"measurement": "EC50", "setting": "ZIKV PLCal_ZV [1]; read-out: EC50 against ZIKV PLCal_ZV", "value": "1200 to 1300", "unit": "nM"}, {"measurement": "EC90", "setting": "ZIKV PLCal_ZV [1]; read-out: EC90 against ZIKV PLCal_ZV", "value": "~1500", "unit": "nM"}, {"measurement": "concentration at which complete inhibition of cytopathic effects (CPE) was observed", "setting": "ZIKV PLCal_ZV [2]", "value": 6.9, "unit": "µM"}, {"measurement": "concentrations with statistically significant reductions in NS1", "setting": "[3]", "value": "≥ 0.6", "unit": "µM"}, {"measurement": "average weight loss", "setting": "ZIKV PRVABC59 isolate", "value": "~20", "unit": "%"}, {"measurement": "animals surviving the infection", "setting": "ZIKV PRVABC59 isolate; ip, 50 mg/kg", "value": 50, "unit": "%"}, {"measurement": "cell viability", "setting": "Vero E6 cells", "value": 100, "unit": "%"}, {"measurement": "time within which all mice died", "setting": "[4]; male, C57BL/6, mouse, ip, 400 mg/kg", "value": "≤ 2", "unit": "days"}, {"measurement": "survival and signs of toxicity", "setting": "[4]; mouse", "value": "without signs of toxicity"}, {"measurement": "deaths", "setting": "[4]; mouse, ip, 200 mg/kg", "value": "One mouse"}, {"measurement": "weight loss of the surviving mice", "setting": "[4]; mouse, ip, 200 mg/kg", "value": "~15", "unit": "%"}, {"measurement": "calculated maximum recommended starting dose (MRSD)", "setting": "[5]", "value": 0.813, "unit": "mg/kg"}, {"measurement": "daily dose to start clinical trials", "setting": "[5]", "value": 56.91, "unit": "mg"}, {"measurement": "NOAEL", "setting": "in vivo", "value": 100, "unit": "mg/kg"}]}
{"smiles": "NC(=O)c1nc(F)c[nH]c1=O", "note": "[T-705]", "values": [{"measurement": "protection in IFNAR-/- mice", "setting": "Ebola", "value": 100, "unit": "%"}]}
{"smiles": "CCN(CC)CCOc1ccc(C(=C(Cl)c2ccccc2)c2ccccc2)cc1", "note": "[clomiphene]", "values": [{"measurement": "protection of mice", "setting": "Ebola", "value": 90, "unit": "%"}]}
{"smiles": "CN(C)CCOc1ccc(/C(=C(/CCCl)c2ccccc2)c2ccccc2)cc1", "note": "[toremifene]", "values": [{"measurement": "protection of mice", "setting": "Ebola", "value": 50, "unit": "%"}]}
